Measured values reported in patent publication US20210283097A1, “METHODS OF DIAGNOSING AND TREATING ALZHEIMER'S DISEASE WITH S-EQUOL” (Ausio Pharmaceuticals, LLC, priority 2016, published 2021).
“Also recorded” adds a separate entry of the source.

Tests used:
[1] = tested on: platelet mitochondria cytochrome oxidase (COX); assay: Platelet mitochondria COX activity referenced to CS activity (COX/CS) in Alzheimer's disease subjects, single-blind pilot clinical study; format: in vivo, human; settings: for COX/CS Visit 2 (Mean + SEM): after two weeks of S-equol 10 mg twice a day
Procedure: (§1) Alzheimer's disease subjects were recruited through the University of Kansas Alzheimer's Disease Center (ADC). The ADC maintains a clinical cohort whose routine characterizations include Clinical Dementia Rating (CDR) scale ratings, uniform data set (UDS) cognitive testing, and APOE genotyping. The diagnosis of clinic cohort participants is primarily based on CDR and UDS data, and is determined through a consensus conference that includes subspecialty-trained cognitive neurologists and an expert neuropsychologist. Subjects diagnosed with Alzheimer's disease further meet current criteria for that diagnosis in McKhann et al., Alzheimers Dement, 7 (2011) 263-269.
(§2) To qualify for the study, participants had to be female with very mild (CDR 0.5) or mild (CDR 1) Alzheimer's disease. Each participant was required to have a study partner. As part of the informed consent process, the subjects and study partners were told that during different parts of the study the participants would receive either an S-equol capsule or an inert placebo. The placebo could not be distinguished from the S-equol by sight, touch, or taste so although the investigators knew whether participants at any given point were receiving S-equol or placebo, the participants themselves were blind to the actual treatment. The S-equol and placebo capsule were provided by Ausio Pharmaceuticals, LLC (Cincinnati, Ohio).
(§3) Subjects received a two week supply of medication, which uniformly consisted of placebo, and were instructed to take the study medication twice a day. At the end of this initial two-week period participants returned to the ADC clinical trials unit for their first study visit (visit 1; lead-in evaluation). Visit 1 procedures included an assessment of study medication compliance, vital signs, a query for perceived side effects, the Montreal Cognitive Assessment (MoCA), and a 40 ml phlebotomy; the blood was used to measure platelet mitochondria cytochrome oxidase (COX) and citrate synthase (CS) activities. At the completion of this visit the next two weeks of study medication was dispensed, which uniformly consisted of 10 mg S-equol capsule.
(§4) At the end of this second two-week period participants returned to the ADC clinical trials unit for their second study visit (visit 2; active treatment evaluation). The same procedures were performed during the lead-in evaluation and dispensed the next two weeks of study medication, which at this point uniformly consisted of placebo.
(§5) At the end of this final two-week period the participants returned to the ADC clinical trials unit for their third study visit (visit 3; wash-out evaluation). The lead-in and active treatment evaluation procedures were performed again, which completed participation in this single-blind study.
Forty milliliter blood samples were collected in tubes containing acid-citrate-dextrose (ACD) tubes as an anticoagulant, and maintained at room temperature. Within 24 hours of phlebotomy the blood was processed by the ADC Mitochondrial Genomics and Metabolism Core. To initiate the processing procedure, platelets were isolated by centrifugation and enriched mitochondrial fractions prepared using previously described methods. Such procedures involved nitrogen cavitation to rupture platelets followed by centrifugation to collect mitochondria.
The protein concentrations of the enriched mitochondrial fractions were measured using a BCA protein assay kit (BioRad, Hercules, Calif.). COX Vmax activity was determined as a pseudo first order-rate constant (sec−1/mg) by measuring the oxidation of reduced cytochrome c at 550 nm.
In addition to measuring COX activity, each sample's citrate synthase (CS) Vmax activity (nmol/min/mg) was measured. This assay was performed spectrophotometrically by following the formation of 5-thio-2-nitrobenzoate (412 nm) following the addition of 100 μM oxaloacetate at 30° C. […]

[2] = Montreal Cognitive Assessment (MoCA) in Alzheimer's disease subjects, single-blind pilot clinical study; format: in vivo, human; settings: for MoCA Visit 2 (Mean + SEM): visit 2 = after two weeks of S-equol 10 mg twice a day; for percent MoCA score change between visit 1 and visit 2 (trend): FIG. 1
Procedure: as §1, §2, §3, §4, §5
Secondary outcomes included a safety analysis of the S-equol 10 mg twice per day dose and an analysis of MoCA scores.
In addition to summarizing MoCA scores by means and standard errors, the percent change between visit 1 and visit 2 scores, as well as the percent change between visit 1 and visit 3 scores, was calculated for each participant.

[3] = Safety analysis of S-equol 10 mg twice per day in Alzheimer's disease subjects; format: in vivo, human; settings: 10 mg twice per day for two weeks, Alzheimer's disease patients
Procedure: as §3, §4
At the end of this final two-week period the participants returned to the ADC clinical trials unit for their third study visit (visit 3; wash-out evaluation). The lead-in and active treatment evaluation procedures were performed again, which completed participation in this single-blind study. […]

rat hippocampal neurons = settings: cited from earlier work
cytochrome oxidase (COX) = settings: brains from ovariectomized mice; cited from earlier work

With `Oc1ccc([C@H]2COc3cc(O)ccc3C2)cc1` [S-equol] the “COX/CS Visit 2 (Mean + SEM)” value ([1]; APOE4 Carriers, 8 participants) was 4.3E−05 ± 3.5E−06, the “COX/CS Visit 2 (Mean + SEM)” value ([1]; APOE4 non-Carriers, Outlier Excluded, 6 participants) was 4.7E−05 ± 7.1E−06 and the “COX/CS Visit 2 (Mean + SEM)” value ([1]; APOE4 non-Carriers, Outlier Included, 7 participants) was 9.2E−05 ± 4.6E−05. The “percent COX/CS change between visit 1 and visit 2 (trend), non-APOE4 carriers versus APOE4 carriers” value ([1]; FIGS. 3(A) and 3(B)) was “trended higher”, the “difference in mean COX/CS values between visits, or between APOE4 carriers and non-carriers” value ([1]; Table 3) was “No significant differences” and the “COX/CS Visit 2 (Mean + SEM)” value ([1]; Total, Outlier Excluded, 14 participants) was 4.5E−05 ± 3.5E−06. For the same compound, the “COX/CS Visit 2 (Mean + SEM)” value ([1]; Total, Outlier Included, 15 participants) was 6.6E−05 ± 2.2E−05, the “participants with a positive COX/CS response pattern (responders)” value ([1]; slope visit 1 to 2 greater than slope visit 2 to 3, COX activity referenced to CS activity) was 11 of the 15 and the “MoCA Visit 2 (Mean + SEM)” value ([2]; APOE4 Carriers, 8 participants) was 15.8 ± 2.5. The “percent MoCA score change between visit 1 and visit 2 (trend)” value ([2]; APOE4 carriers) was “trended in a downward direction”, the “MoCA Visit 2 (Mean + SEM)” value ([2]; APOE4 non-Carriers, 7 participants) was 13.3 ± 2.1 and the “percent MoCA score change between visit 1 and visit 2 (trend)” value ([2]; APOE4 non-carriers) was “upward direction”. The “difference in mean MoCA scores between visits, or between APOE4 carriers and non-carriers” value ([2]; Table 2) was “No significant differences”, the “MoCA Visit 2 (Mean + SEM)” value ([2]; Total, 15 participants) was 14.6 ± 6.6 and the adverse events [3] was “No treatment-related adverse events; also recorded: No adverse events occurred”. For the same compound, the “respiratory and maximal glycolysis fluxes” value (rat hippocampal neurons) was “increase” and the “cytochrome oxidase (COX) activity and COX1 protein levels” value (cytochrome oxidase (COX)) was “increase”.
